Earlier results in patent US20220288056A1, “PHARMACEUTICAL COMPOSITION CONTAINING NITROXOLINE, NITROXOLINE ORAL SOLID TABLET, PREPARATION METHOD THEREFOR AND USE THEREOF” (Jiangsu Yahong Meditech Co., Ltd., priority 2019, published 2022).

Legend:
[1] = target: T1, methionine aminopeptidase MetAP2 (Homo sapiens, UniProt P50579); conditions: vascular endothelial cells
T1 construct: host or cells: vascular endothelial cells

[2] = target: T2, silence information regulator 2-related enzyme SIRT1 (Homo sapiens, UniProt Q96EB6); conditions: vascular endothelial cells
T2 construct: host or cells: vascular endothelial cells
T2 sequence (Q96EB6 1-747): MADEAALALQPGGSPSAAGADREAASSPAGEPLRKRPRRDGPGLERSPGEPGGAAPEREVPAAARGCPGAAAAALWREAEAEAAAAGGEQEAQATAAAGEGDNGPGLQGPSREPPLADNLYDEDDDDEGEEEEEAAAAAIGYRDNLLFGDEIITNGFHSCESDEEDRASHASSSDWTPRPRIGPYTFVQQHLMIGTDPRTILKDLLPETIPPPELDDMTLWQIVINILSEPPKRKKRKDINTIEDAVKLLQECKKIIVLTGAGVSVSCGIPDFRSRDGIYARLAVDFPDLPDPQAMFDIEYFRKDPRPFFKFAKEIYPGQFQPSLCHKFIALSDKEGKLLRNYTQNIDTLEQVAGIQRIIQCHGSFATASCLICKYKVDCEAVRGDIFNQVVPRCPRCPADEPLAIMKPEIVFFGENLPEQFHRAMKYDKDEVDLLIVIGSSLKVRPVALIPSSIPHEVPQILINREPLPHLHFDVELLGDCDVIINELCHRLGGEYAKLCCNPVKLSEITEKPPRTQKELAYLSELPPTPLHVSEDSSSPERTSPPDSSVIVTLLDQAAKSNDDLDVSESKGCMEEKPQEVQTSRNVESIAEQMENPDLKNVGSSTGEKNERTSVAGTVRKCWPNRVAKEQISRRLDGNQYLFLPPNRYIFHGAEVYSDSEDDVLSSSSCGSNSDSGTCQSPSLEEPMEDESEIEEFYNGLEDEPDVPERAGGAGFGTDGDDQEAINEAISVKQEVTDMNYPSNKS

T1 sequence (P50579 whole entry): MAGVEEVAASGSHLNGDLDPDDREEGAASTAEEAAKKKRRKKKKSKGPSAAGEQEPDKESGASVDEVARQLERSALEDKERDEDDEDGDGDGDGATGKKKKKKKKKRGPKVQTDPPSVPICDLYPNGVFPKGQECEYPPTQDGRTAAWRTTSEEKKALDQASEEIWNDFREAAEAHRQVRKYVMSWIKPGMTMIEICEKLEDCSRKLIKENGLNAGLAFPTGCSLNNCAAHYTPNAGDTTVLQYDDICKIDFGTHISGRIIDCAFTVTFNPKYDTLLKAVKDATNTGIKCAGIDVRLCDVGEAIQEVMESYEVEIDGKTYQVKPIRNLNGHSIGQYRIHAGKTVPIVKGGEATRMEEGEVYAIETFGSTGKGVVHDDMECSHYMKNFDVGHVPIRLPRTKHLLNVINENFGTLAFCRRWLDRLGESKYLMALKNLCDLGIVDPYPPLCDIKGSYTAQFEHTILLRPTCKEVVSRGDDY

O=[N+]([O-])c1ccc(O)c2ncccc12 [Nitroxoline, 5-nitro-8-hydroxyquinoline]
inhibition of MetAP2 [1]: inhibit
inhibition of SIRT1 [2]: inhibit
